Experimental data: US20120264735A1 (priority 2009, published 2012)

Target: T1, c-Met kinase (recombinant c-Met) (Homo sapiens, UniProt P08581)
T1 construct: 0.27 nM recombinant c-Met
Assay: In vitro kinase assay I (homogeneous time-resolved fluorescence tyrosine kinase assay)
Assay type: biochemical
Protocol: The kinase activities of c-Met are measured using a modified version of the homogeneous-time-resolved tyrosine kinase assay described by Park et al. (1999, Anal. Biochem. 269:94-104).
The procedure for determining the potency of a compound to inhibit c-Met kinase comprises the following steps: • 1. Prepare 3-fold serial diluted compound solutions in 100% dimethyl sulfoxide (DMSO) at 20× of the desired final concentrations in a 384-well plate. • 2. Prepare a master reaction mix containing 6.67 mM MgCl2, 133.3 mM NaCl, 66.7 mM Tris-HCl (pH 7.4), 0.13 mg/ml BSA, 2.67 mM dithiothreitol, 0.27 nM recombinant c-Met and 666.7 nM biotinylated synthetic peptide substrate (biotin-ahx-EQEDEPEGDYFEWLE-CONH2) (SEQ.ID.NO.:1). • 3. In a black assay plate, add 1.5 μl of compound solution (or DMSO) and 22.5 μl of master reaction mix per well. Initiate the kinase reaction by adding 6 μl of 0.25 mM MgATP per well. Allow the reactions to proceed for 60 min at room temperature. The final conditions for the reaction are 0.2 nM c-Met, 0.5 μM substrate, 50 μM MgATP, 5 mM MgCl2, 100 mM NaCl, 2 mM DTT, 0.1 mg/ml BSA, 50 mM Tris (pH 7.4) and 5% DMSO. • 4. Stop the kinase reaction with 30 μl of Stop/Detection buffer containing 10 mM EDTA, 25 mM HEPES, 0.1% TRITON X-100, 0.750 nM Eu-chelate labeled anti-phosphotyrosine antibody PY20 (cat. #AD0067, PerkinElmer) and 50 μg/ml Streptavidin-allophycocyanin conjugate (cat. #PJ25S, Prozyme). • 5. Read HTRF signals on a Victor reader (PerkinElmer) in HTRF mode after 60-min incubation at room temperature in the dark. • 6. IC50 is determined by fitting the observed relationship between compound concentration and HTRF signal with a 4-parameter logistic equation. II. GTL-16 pY1349 Cell-Based Assay

T1 sequence (P08581 25-1390): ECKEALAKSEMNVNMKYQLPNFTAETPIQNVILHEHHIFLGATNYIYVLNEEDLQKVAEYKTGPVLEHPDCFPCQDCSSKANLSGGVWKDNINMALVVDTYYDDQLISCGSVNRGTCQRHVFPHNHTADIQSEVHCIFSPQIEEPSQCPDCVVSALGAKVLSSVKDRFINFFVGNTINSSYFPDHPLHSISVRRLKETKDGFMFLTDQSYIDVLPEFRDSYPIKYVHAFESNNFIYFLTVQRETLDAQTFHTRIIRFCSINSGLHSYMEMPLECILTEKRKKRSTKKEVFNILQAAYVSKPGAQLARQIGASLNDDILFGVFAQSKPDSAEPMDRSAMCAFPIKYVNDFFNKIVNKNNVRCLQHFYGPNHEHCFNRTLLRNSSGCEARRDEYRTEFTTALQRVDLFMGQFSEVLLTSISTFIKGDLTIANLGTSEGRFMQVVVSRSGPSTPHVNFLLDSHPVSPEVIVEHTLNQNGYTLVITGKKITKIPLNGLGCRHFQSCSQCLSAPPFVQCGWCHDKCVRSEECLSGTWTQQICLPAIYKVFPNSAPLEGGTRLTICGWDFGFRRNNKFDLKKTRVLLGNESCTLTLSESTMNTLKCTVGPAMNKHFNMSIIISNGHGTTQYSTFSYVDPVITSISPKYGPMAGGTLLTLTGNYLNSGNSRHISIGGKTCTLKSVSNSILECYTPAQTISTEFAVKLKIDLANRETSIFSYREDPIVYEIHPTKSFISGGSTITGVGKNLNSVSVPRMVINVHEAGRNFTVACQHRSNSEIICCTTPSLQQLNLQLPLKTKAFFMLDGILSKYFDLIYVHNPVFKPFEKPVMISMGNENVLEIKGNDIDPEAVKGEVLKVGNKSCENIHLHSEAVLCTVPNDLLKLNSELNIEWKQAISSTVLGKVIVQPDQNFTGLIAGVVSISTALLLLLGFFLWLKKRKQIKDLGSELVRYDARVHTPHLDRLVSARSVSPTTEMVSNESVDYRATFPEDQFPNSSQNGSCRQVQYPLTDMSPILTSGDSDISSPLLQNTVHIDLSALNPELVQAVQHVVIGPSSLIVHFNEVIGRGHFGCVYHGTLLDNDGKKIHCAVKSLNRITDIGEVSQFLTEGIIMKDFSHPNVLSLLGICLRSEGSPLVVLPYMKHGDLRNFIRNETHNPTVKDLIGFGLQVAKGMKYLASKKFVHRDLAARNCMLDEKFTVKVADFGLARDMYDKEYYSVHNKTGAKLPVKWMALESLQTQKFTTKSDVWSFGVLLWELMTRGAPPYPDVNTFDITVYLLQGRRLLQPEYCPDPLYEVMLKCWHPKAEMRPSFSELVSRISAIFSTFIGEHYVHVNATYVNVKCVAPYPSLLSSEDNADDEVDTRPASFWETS

Structure (SMILES)	IC50 [nM]
O=c1ccn(-c2ccc(F)c(F)c2)nc1Cc1cccc(-c2ncc(OCC3CCOC3)cn2)c1 (racemic) [Example 328, rac-1-(3,4-difluorophenyl)-3-{3-[5-(tetrahydrofuran-3-ylmethoxy)pyrimidin-2-yl]benzyl}pyridazin-4(1H)-one]	< 100
Cn1cc(-n2ccc(=O)c(Cc3cccc(-c4ncc(OCC(O)C(F)(F)F)cn4)c3)n2)cn1 (racemic) [Example 364, rac-1-(1-methyl-1H-pyrazol-4-yl)-3-{3-[5-(3,3,3-trifluoro-2-hydroxypropoxy)pyrimidin-2-yl]benzyl}pyridazin-4(1H)-one]	< 100
Cn1cc(-n2ccc(=O)c(Cc3cccc(-c4ncc(OCC(O)CN5CCOCC5)cn4)c3)n2)cn1 (racemic) [Example 368, rac-3-{3-[5-(2-hydroxy-3-morpholin-4-ylpropoxy)pyrimidin-2-yl]benzyl}-1-(1-methyl-1H-pyrazol-4-yl)pyridazin-4(1H)-one]	< 100
CCC(C)c1cnc(-c2cccc(Cc3nn(-c4cnn(C)c4)ccc3=O)c2)nc1 (racemic) [Example 408, rac-3-{3-[5-(Butan-2-yl)pyrimidin-2-yl]benzyl}-1-(1-methyl-1H-pyrazol-4-yl)pyridazin-4(1-1)-one]	< 100
Cn1cc(-n2ccc(=O)c(Cc3cccc(-c4ncc(CN5CCC(F)C5)cn4)c3)n2)cn1 (racemic) [Example 431, rac-3-(3-{5-[(3-fluoropyrrolidin-1-yl)methyl]pyrimidin-2-yl}benzyl)-1-(1-methyl-1H-pyrazol-4-yl)pyridazin-4(1H)-one]	< 100

Second part, the compound after the results:

IC50 [nM]	Structure (SMILES)
< 100	CC(c1cccc(-c2ncc(OC3CCNCC3)cn2)c1)c1nn(-c2cnn(C)c2)ccc1=O (racemic) [Example 334, rac-1-(1-Methyl-1H-pyrazol-4-yl)-3-(1-{3-[5-(piperidin-4-yloxy)pyrimidin-2-yl]phenyl}ethyl)pyridazin-4(1H)-one]
< 100	CC(Oc1cnc(-c2cccc(Cc3nn(-c4cnn(C)c4)ccc3=O)c2)nc1)C(C)(C)O (racemic) [Example 366, rac-3-{3-[5-(2-hydroxy-1,2-dimethylpropoxy)pyrimidin-2-yl]benzyl}-1-(1-methyl-1H-pyrazol-4-yl)pyridazin-4(1H)-one]
< 100	Cn1cc(-n2ccc(=O)c(Cc3cccc(-c4ncc(OCC(O)c5ccncc5)cn4)c3)n2)cn1 (racemic) [Example 367, rac-3-(3-{5-[2-hydroxy-2-(pyridin-4-yl)ethoxy]pyrimidin-2-yl}benzyl)-1-(1-methyl-1H-pyrazol-4-yl)pyridazin-4(1H)-one]
< 100	Cn1cc(-n2ccc(=O)c(Cc3cccc(-c4ncc(OCC(O)CF)cn4)c3)n2)cn1 (racemic) [Example 369, rac-3-{3-[5-(3-fluoro-2-hydroxypropoxy)pyrimidin-2-yl]benzyl}-1-(1-methyl-1H-pyrazol-4-yl)pyridazin-4(1H)-one]
< 100	CCOCC(O)COc1cnc(-c2cccc(Cc3nn(-c4cnn(C)c4)ccc3=O)c2)nc1 (racemic) [Example 370, rac-3-{3-[5-(3-ethoxy-2-hydroxypropoxy)pyrimidin-2-yl]benzyl}-1-(1-methyl-1H-pyrazol-4-yl)pyridazin-4(1H)-one]
< 100	Cn1cc(-n2ccc(=O)c(Cc3cccc(-c4ncc(OCC(F)c5ccncc5)cn4)c3)n2)cn1 (racemic) [Example 389, rac-3-(3-{5-[2-fluoro-2-(pyridin-4-yl)ethoxy]pyrimidin-2-yl}benzyl)-1-(1-methyl-1H-pyrazol-4-yl)pyridazin-4(1H)-one]
< 100	Cn1cc(-n2ccc(=O)c(Cc3cccc(-c4ncc(O[C@@H]5COC[C@@H]5F)cn4)c3)n2)cn1 (racemic) [Example 390, rac-3-(3-{5-[(cis-4-fluorotetra-hydrofuran-3-yl}oxy]pyrimidin-2-yl}benzyl)-1-(1-methyl-1H-pyrazol-4-yl)pyridazin-4(1H)-one]
